Consider 3 molecules from DBAASP.

Converted amounts (≈) assume the structure as drawn. Bounds are passed on as bounds.

What all share (test): ≥ marks a high value that may be exact or a test limit, other limits are often not marked, values filed in µg/mL are converted to µM
For assay [1], the system named is Staphylococcus epidermidis RP62A.
Assay [2] deals with Staphylococcus aureus ATCC 25923.
Assay [3] has as its system Acinetobacter baumannii NM8.
Assay [4] deals with Enterococcus faecalis ATCC 29212.
For assay [5], the system named is Pseudomonas aeruginosa ATCC 27853.
Assay [6] relates to Staphylococcus epidermidis T37/8.
Assay [7] concerns Staphylococcus epidermidis RP62A/1.
In assay [8] the test system is Candida albicans ATCC 90028.
In assay [9] the test system is Stenotrophomonas maltophilia U8908.
The subject of assay [10] is Stenotrophomonas maltophilia B32/4.
For assay [11], the system named is Acinetobacter baumannii NM109.
In assay [12] the test system is Stenotrophomonas maltophilia B32/1.
Assay [13] relates to Klebsiella pneumoniae ATCC 700603.
For assay [14], the system named is Stenotrophomonas maltophilia B5/5.
In assay [15] the test system is Acinetobacter baumannii NM35.
Assay [16] relates to Stenotrophomonas maltophilia B6/2.
Assay [17] relates to Staphylococcus aureus 145/08.
Assay [18] concerns Acinetobacter baumannii NM124.
In assay [19] the test system is Escherichia coli ATCC 25726.
Assay [20] relates to Acinetobacter baumannii NM75.
For assay [21], the system named is Staphylococcus epidermidis T6/19.
Assay [22] concerns Cronobacter muytjensii ATCC 51329.
Assay [23] has as its system Pseudomonas putida ATCC 49128.
The subject of assay [24] is Escherichia coli NCIMB 11843.
For assay [25], the system named is Staphylococcus aureus NCTC 8325-4.
Assay [26] deals with Klebsiella pneumoniae NCIMB 13218.
Assay [27] concerns Salmonella enterica subsp. enterica serovar Typhimurium DT104.
Assay [28] relates to Cronobacter sakazakii DSM 4485.
Assay [29] concerns Staphylococcus aureus NCTC 7428.
In assay [30] the test system is Staphylococcus aureus RN4220.
Assay [31] has as its system Staphylococcus aureus SA113.
For assay [32], the system named is Cronobacter sakazakii DPC 6440.
Assay [33] concerns Cronobacter sakazakii ATCC BAA-894.
Assay [34] concerns Staphylococcus aureus RF122.
Assay [35] concerns Escherichia coli O111.
Assay [36] relates to Escherichia coli O157:H7.
Assay [37] has as its system Pseudomonas fluorescens NCIMB 9046.
Assay [38] deals with Listeria monocytogenes NCTC 11994.
For assay [39], the system named is Salmonella enterica subsp. enterica serovar Typhimurium LT2.
In assay [40] the test system is Staphylococcus aureus Newman.
Assay [41] concerns Klebsiella pneumoniae ATCC 13883.
Assay [42] concerns Staphylococcus aureus ATCC 12600.
Assay [43] deals with Enterococcus faecalis ATCC 19433.
The test system of assay [44] is Pseudomonas aeruginosa H1001.
The test system of assay [45] is Pseudomonas aeruginosa PAO1.
In assay [46] the test system is Pseudomonas aeruginosa PA14.
Assay [47] concerns Staphylococcus aureus.
Assay [48] deals with Escherichia coli KpC+001812446.
Assay [49] has as its system Klebsiella pneumoniae KpC+001825971.
Assay [50] concerns Enterobacter cloacae.
In assay [51] the test system is Acinetobacter baumannii.
The test system of assay [52] is Escherichia coli ATCC 25922.
The test system of assay [53] is Escherichia coli BL21.

As usually defined, the MIC is the smallest concentration in the dilution series that meets the test's criterion for growth inhibition. For the molecule `CC[C@H](C)[C@H](NC(=O)[C@H](C)NC(=O)[C@@H](NC(=O)[C@H](C)NC(=O)CNC(=O)[C@H](CCCCN)NC(=O)[C@@H](NC(=O)[C@H](C)NC(=O)CNC(=O)[C@H](CCCCN)NC(=O)[C@H](CC(C)C)NC(=O)[C@@H](NC(=O)[C@H](CCCCN)NC(=O)[C@H](CCCCN)NC(=O)[C@H](CC(C)C)NC(=O)[C@@H](NC(=O)[C@H](CCCCN)NC(=O)[C@H](CCCCN)NC(=O)[C@@H](NC(=O)[C@H](CCCCN)NC(=O)[C@@H]1CCCN1C(=O)[C@H](CO)NC(=O)[C@H](CC(C)C)NC(=O)[C@H](CCCCN)NC(=O)[C@@H](N)CC(C)C)[C@@H](C)O)[C@@H](C)O)C(C)C)[C@@H](C)CC)[C@@H](C)CC)C(=O)N[C@@H](C)C(=O)N[C@@H](CO)C(=O)N[C@@H](CCSC)C(=O)N[C@@H](C)C(=O)O` [LKLSPKTKKTLKKVLKGAIKGAIAIASMA], the MIC turned out to be 1.25 µM (≈ 3.76 µg/mL) in assay [1]; 2.5 µM (≈ 7.52 µg/mL) in [2]; 2.5 µM (≈ 7.52 µg/mL) in assay [3]; 5 µM (≈ 15 µg/mL) in assay [4]; 10 µM (≈ 30.1 µg/mL) in assay [5]; 1.25 µM (≈ 3.76 µg/mL) in [6]. The MIC in assay [7] is 1.25 µM (≈ 3.76 µg/mL); in [8], not below 80 µM; in assay [9], 2.5 µM (≈ 7.52 µg/mL); in assay [10], 1.25 µM (≈ 3.76 µg/mL); in [11], 5 µM (≈ 15 µg/mL); in assay [12] it was 2.5 µM (≈ 7.52 µg/mL). Moreover, the minimal inhibitory concentration (MIC) in assay [13] was 5 µM (≈ 15 µg/mL); in assay [14], 2.5 µM (≈ 7.52 µg/mL); in assay [15], 2.5 µM (≈ 7.52 µg/mL); in assay [16], 1.25 µM (≈ 3.76 µg/mL); in assay [17] it was 2.5 µM (≈ 7.52 µg/mL); in assay [18] it was 2.5 µM (≈ 7.52 µg/mL). Also, the MIC is 2.5 µM (≈ 7.52 µg/mL) in [19], 2.5 µM (≈ 7.52 µg/mL) in assay [20] and 1.25 µM (≈ 3.76 µg/mL) in assay [21].
`CC[C@H](C)[C@H](N)C(=O)N[C@@H](CCCCN)C(=O)N[C@@H](Cc1cnc[nH]1)C(=O)N[C@@H](CCC(N)=O)C(=O)NCC(=O)N[C@@H](CC(C)C)C(=O)N1CCC[C@H]1C(=O)N[C@@H](CCC(N)=O)C(=O)N[C@@H](CCC(=O)O)C(=O)O` [IKHQGLPQE]: the minimum inhibitory concentration (MIC) was not below 625 µM in assay [22]; not below 953 µM in [23]; not below 1250 µM in [24]; not below 1250 µM in [25]; not below 1250 µM in assay [26]; not below 1910 µM in assay [27]. Besides, the MIC in [28] is not below 625 µM; in assay [29], not below 1910 µM; in assay [30] it was not below 1250 µM; in assay [31], not below 1250 µM; in assay [32] it was not below 625 µM; in [33], not below 625 µM. Further, the MIC is not below 1250 µM in assay [34]; not below 1910 µM in assay [35]; not below 1910 µM in assay [36]; not below 1250 µM in assay [37]; not below 953 µM in assay [38]; not below 1250 µM in [39]. For the same molecule, in assay [40], the MIC was not below 1250 µM.
With `CC[C@H](C)[C@H](NC(=O)[C@H](CCCCN)NC(=O)[C@H](CC(C)C)NC(=O)[C@H](CCCN=C(N)N)NC(=O)[C@H](CC(C)C)NC(=O)[C@H](CCCCN)NC(=O)[C@@H](N)CCCCN)C(=O)N[C@@H](C)C(=O)N[C@@H](Cc1ccccc1)C(=O)N[C@@H](CCCCN)C(=O)O` [KKLRLKIAFK], the MIC in [41] was not below 32 µM; in assay [2], more than 32 µM; in assay [42], not below 32 µM; in [43], 5.66 µM (≈ 7.04 µg/mL); in assay [44] it was 20 µM (≈ 24.9 µg/mL); in assay [45], 32 µM (≈ 39.8 µg/mL). In addition, the MIC in [5] is more than 32 µM; in assay [46], not below 32 µM; in assay [47] it was more than 32 µM; in assay [48] it was 22.6 µM (≈ 28.2 µg/mL); in [49], not below 32 µM; in assay [50] it was not below 32 µM. Further, the MIC in [51] was not below 32 µM; in [52] it was 16 µM (≈ 19.9 µg/mL); in assay [53], 4 µM (≈ 4.98 µg/mL).
